In patent US9593305B2, “Differentiation of pluripotent stem cells” (Janssen Biotech, Inc., priority 2008, dated 2017):

Legend:
[1] = test system: H1 human embryonic stem cells; test: Analogue screening in combination with only GDF-8, SOX17 (Example 21, Tables 18 and 19); format: cell-based; set-up: Sox17 Expression: % of positive control / Cell Number: % of positive control: tested at 2.5 µM; conditions: compound in combination with GDF8; for Cell Number: Average Total Cell Number / Sox17 Expression: Average Total Intensity: four assay plates; for Cell Number: % of positive control / Sox17 Expression: % of positive control: relative to Activin A/Wnt3a of the same plate;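 on all read-outs here: cells treated with 200 ng/ml GDF-8 in DMEM:F12 with FCS over four days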
Summary of the method: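 H1 human ES cells treated four days with 200 ng/ml GDF-8 plus 2.5 μM compound (day 1, 0.5% FCS), GDF-8 alone in 2% FCS on day 3; triplicates. Fixed cells immunostained for SOX17 with Hoechst counterstain, imaged at 15 fields/well; total SOX17 intensity normalized to activin A/Wnt3a positive control.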

[2] = test system: H1 human embryonic stem cells; test: Analog screening with GDF-8 and growth factor/agonist pool (Example 8, Tables 7 and 8); format: cell-based
Summary of the method: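 H1 hESC clusters, washed free of growth factors, fed on alternate days over 4 days with DMEM:F12, 0.5% FCS, 2.5 μM compound, 25 ng/ml GDF-8 plus a 50 ng/ml growth-factor pool. Fixed cells immunostained for SOX17 and imaged; total SOX17 intensity normalised to positive control.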

[3] = Plate 2, compound + EGF, FGF, PDGF-A, VEGF, PDGF-D, muscimol, GDF8
[4] = Plate 2, compound + EGF, FGF, PDGF-A, VEGF, PDGF-D, muscimol, GDF8, positive control Activin A/Wnt3a
[5] = Table 8: hits with greater than 25% activity of the positive control, with GDF-8 and growth factors/agonists

| SMILES | Cell Number: Average Total Cell Number [1] | Sox17 Expression: Average Total Intensity [1] | Cell Number: % of positive control [1] [%] | Sox17 Expression: % of positive control [1] [%] | Cell Number, Average Total Cell Number [2, 3] | Sox17 Expression, Average Total Intensity [2, 3] | Cell Number, % of positive control [2, 4] | Sox17 Expression, % of positive control [2, 4] | Cell Number, % of positive control [2, 5] | Sox17 Expression, % of positive control [2, 5] | Sox17 Expression, Average Total Intensity [2, 5] |
| --- | --- | --- | --- | --- | --- | --- | --- | --- | --- | --- | --- |
| O=C1CCN2CCN(CC2)Cc2cc(ccc2Cl)Nc2ncnc(n2)-c2ccnc(c2)CCCN1 [Compound 27, 4-Chloro-1,8,10,12,17,22,26,32-octaazapentacyclo[24.2.2.1˜3,7˜1.˜9,13˜0.1˜14,18˜1]tritriaconta-3(33), 4,6,9(32), 10,12,14(31), 15,17-nonaen-23-one] | 3721 | 1.19E+07 | 26.7 | 3.9 | 8044 | 8.81E+07 | 50.9 % of positive control | 30.8 % of positive control | 50.9 % of positive control | 30.8 % of positive control | 8.81E+07 |
| CN1CCCC(=O)NCCc2cccc(c2)Nc2ncnc(n2)-c2cccc(c2)CCC1 [Compound 33, 20-Methyl-3,5,7,15,20,30-hexaazatetracyclo[22.3.1.1˜2,6˜0.1˜8,12˜]triaconta-1(28), 2(30), 3,5,8(29), 9,11,24,26-nonaen-16-one] | 2362 | 6.60E+06 | 15.4 | 2.0 | 7485 | 8.10E+07 | 47.4 % of positive control | 28.3 % of positive control | 47.4 % of positive control | 28.3 % of positive control | 8.10E+07 |
